In assay [1] the test system is Orobanche (Orobanche minor) seeds. Description: Test for Germination Stimulation Activity on Orobanche. Format: in vivo. Particulars: conditioned Orobanche minor seeds, 20 μl of 10 μM solution, 30° C., counted 4 days after; no compound: 0%. The procedure:
(§1) First, 10 μmol of each test compound was weighed and dissolved in 2 ml of acetone. Each solution was diluted with distilled water to obtain a 10 μM solution. Next, a bottom of a petri dish was covered with a filter paper, and conditioned seeds of Orobanche (Orobanche minor) were placed on the filter paper, and then 20 μl of each diluted solution of test compound was applied to the seeds. For maintaining the humidity, a wet filter paper was prepared as long as water droplets were not dripped from the filter paper, and folded into four, and then placed onto the center of the petri dish. The petri dish was sealed with Parafilm®, and then covered with aluminum foil, and then incubated at 30° C. Four (4) days after, the number of germinated seeds was counted, and then a germination rate (%) was calculated by using the following formula: Germination rate(%)=(the number of germinated seeds/the total number of seeds)×100 The test compounds and the germination rates are shown in Tables 3 and 4. When no test compound was used in this test, the germination rate was 0%.

In assay [2] the test system is Striga (Striga hermonthica) seeds. Kind of assay: Test for Germination Stimulation Activity on Striga. Format: in vivo. Particulars: conditioned Striga hermonthica seeds, 20 μl of 10 μM solution, 30° C., counted 24 hours later; no compound: 0%. The procedure: as §1, with “of Striga (Striga hermonthica)” for “of Orobanche (Orobanche minor)”, “C. Twenty four (24) hours later,” for “C. Four (4) days after,”, “Tables 1” for “Tables 3”, “and 2.” for “and 4.”

For the molecule `CC1=CC(OC(=O)Nc2ccccc2)OC1=O` (stereo not shown) [Compound No. 1, 4-methyl-5-oxo-2,5-dihydrofuran-2-yl phenylcarbamate], the results for the “Germination rate (%)” value in assay [1] and in assay [2] were 38.8% and 2.6%, respectively.

As to `CC1=CC(OC(=O)NCc2ccccc2)OC1=O` (stereo not shown) [Compound No. 2, 4-methyl-5-oxo-2,5-dihydrofuran-2-yl benzylcarbamate], the results for the “Germination rate (%)” value in assay [1] and in assay [2] were 61.1% and 38.1%, respectively.

Regarding `CC1=CC(OC(=O)NCCc2ccccc2)OC1=O` (stereo not shown) [Compound No. 3, 4-methyl-5-oxo-2,5-dihydrofuran-2-yl phenethylcarbamate], the entries for the “Germination rate (%)” value in assay [1] and in assay [2] were 66.9% and 54.0%, respectively.

With `CC1=CC(OC(=O)N(C)c2ccccc2)OC1=O` (stereo not shown) [Compound No. 4, 4-methyl-5-oxo-2,5-dihydrofuran-2-yl methyl(phenyl)carbamate], the “Germination rate (%)” value stood at 66.3% in assay [1] and 53.5% in assay [2].

Regarding `CC1=CC(OC(=O)N(C)Cc2ccccc2)OC1=O` (stereo not shown) [Compound No. 5, 4-methyl-5-oxo-2,5-dihydrofuran-2-yl benzyl(methyl)carbamate], the “Germination rate (%)” value in assay [1] was 75.2%; in assay [2], 48.4%.

Consider `CC1=CC(OC(=O)N(C)CCc2ccccc2)OC1=O` (stereo not shown) [Compound No. 6, 4-methyl-5-oxo-2,5-dihydrofuran-2-yl 2-phenethyl(methyl)carbamate], for which the “Germination rate (%)” value is 30.4% in assay [1] and 28.0% in assay [2].

In the case of `CC1=CC(SC(=S)N(C)c2ccccc2)OC1=O` (stereo not shown) [Compound No. 7, 4-methyl-5-oxo-2,5-dihydrofuran-2-yl methyl(phenyl)dithiocarbamate], the figures for the “Germination rate (%)” value in assay [1] and in assay [2] were 15.3% and 32.6%, respectively.

On to `CC1=CC(SC(=O)N(C)c2ccccc2)OC1=O` (stereo not shown) [Compound No. 8, 4-methyl-5-oxo-2,5-dihydrofuran-2-yl methyl(phenyl)thiolcarbamate], for which the figures for the “Germination rate (%)” value in assay [1] and in assay [2] were 5.4% and 12.0%, respectively.

On to `CC1=CC(OC(=O)NCCc2cccc(C)c2C)OC1=O` (stereo not shown) [Compound No. 9, 4-methyl-5-oxo-2,5-dihydrofuran-2-yl 2-(2,3-dimethylphenyl)ethylcarbamate], for which the “Germination rate (%)” value in assay [1] is given as 54.0%; in assay [2] it was 32.0%.

Take `CC1=CC(OC(=O)NCCc2ccc(C)c(C)c2)OC1=O` (stereo not shown) [Compound No. 10, 4-methyl-5-oxo-2,5-dihydrofuran-2-yl 2-(3,4-dimethylphenyl)ethylcarbamate]: the “Germination rate (%)” value in assay [1] is 48.0%; in assay [2], 43.0%.

With `CC1=CC(OC(=O)NCCc2ccc3c(c2)OCO3)OC1=O` (stereo not shown) [Compound No. 11, 4-methyl-5-oxo-2,5-dihydrofuran-2-yl 2-(3,4-methylenedioxyphenyl)ethylcarbamate], the “Germination rate (%)” value in assay [1] turned out to be 47.0%; in assay [2], 37.0%.

The values above are taken from patent US8822383B2, “Germination-stimulant carbamate derivatives and process for preparation thereof” (National University Corporation KOBE UNIVERSITY, priority 2010, dated 2014).
